Experimental data published in patent EP4748844A1, “AZETIDINE COMPOUND AND MEDICAL USE THEREOF” (SHANGHAI INSTITUTE OF MATERIA MEDICA, CHINESE ACADEMY OF …, priority 2023, dated 2025).

Legend:
Assay type in all cases: cell-based
[1] = tested on: ISG gene expression induced by MSA-2 in human THP1-Blue-ISG cells; assay: Inhibition of MSA-2-induced ISG gene expression in human THP1-Blue-ISG cells (Quanti-Blue, OD650); settings: STING agonist MSA-2 10 µM, incubated for 24 hours
Procedure: (§1) 10 µL of compound diluted with PBS/physiological saline was added to each well of a 96 well cell culture plate. The STING agonist was MSA-2, which was added to the counted cell suspension at a final concentration of 10 µM. For the control group without compounds, 10 µL of PBS/physiological saline containing 2% DMSO was added. 3 replicate wells were set in each group. THP1-Blue-ISG cells were counted and adjusted to a cell concentration of 4× 10^5/mL, and 190 µL of cells containing STING agonist were added to each well for incubation. Therefore, the final volume of each test well was 200 µL, the content of DMSO was 0.1%, and the final concentration of the compound tested was 10/3.3/1.1/0.4/0.13/0.04/0.013/0.004 µM, incubated for 24 hours. In addition, 190 µL of cells without STING agonist and 10 µL of physiological saline containing 2% DMSO were added to the blank group. 3 replicate wells were set in each group.
After 24 hours, 20 µL of culture medium was taken from each well and transferred to a new 96 well plate. 180 µL of chromogenic solution Quanti-Blue was added. The plate was placed in a 37 °C incubator. After 2 hours, the OD650 values were measured.
Result analysis: Inhibition rate (%) = (Con(OD650)−Treated(OD650))/Con(OD650) × 100% [formula]
(§2) The IC50 calculation of inhibitors was implemented using the Graphpad Prism 8 software's calculation method log (inhibitor) vs. response - Variable slope (four parameters), with a constrain interval of 0-100.

[2] = tested on: DMXAA induced ISG gene expression in mouse RAW-Lucia cells; assay: Inhibition of DMXAA-induced ISG gene expression in mouse RAW-Lucia cells (QUANTI-Luc); settings: STING agonist DMXAA 50 µM, incubated for 24 hours
Procedure: 10 µL of compound diluted with PBS/physiological saline was added to each well of a 96 well cell culture plate. The STING agonist was DMXAA, which was added to the counted cell suspension at a final concentration of 50 µM. For the control group without compounds, 10 µL of PBS/physiological saline containing 2% DMSO was added. 3 replicate wells were set in each group. RAW-Lucia cells were counted and adjusted to a cell concentration of 4×10^5/mL, and […] of cells were added to each well for incubation. Therefore, the final volume of each test well was 200 µL, the content of DMSO was 0.1%, and the final concentration of the compound tested was 10/3.3/1.1/0.4/0.13/0.04/0.013/0.004 µM. The final concentration of STING agonist DMXAA was 50 µM. The mixture was incubated for 24 hours. In addition, 200 µL of culture medium was added to the blank group. 3 replicate wells were set in each group.
(§3) After 24 hours, 20 µL of culture medium was taken from each well and transferred to a new 96 well plate with photopermeable bottom. 50 µL of the luciferase detection reagent QUANTI-Luc™ was added, and the […] was immediately measured (avoid light).
Result analysis: Inhibition rate (%) = (Con(Lum)−Treated(Lum))/Con(Lum) × 100% [formula]
as §2

[3] = tested on: ISG gene expression induced by MSA-2 in human THP1-Dual cells; assay: Inhibition of MSA-2-induced ISG gene expression in human THP1-Dual cells (QUANTI-Luc); settings: STING agonist MSA-2 10 µM, incubated for 24 hours
Procedure: as §1, with “THP1-Dual” for “THP1-Blue-ISG”, “4×10^5/mL,” for “4× 10^5/mL,”
as §3, with “medium for THP1-Dual cells” for “medium”, “light). Result analysis:Inhibition rate (%) = (Con(Lum)−Treated(Lum))/Con(Lum) × 100% [formula]” for “light).”
as §2

## O=C(Nc1c[nH]c2ccccc12)c1ccc2c(c1)SCC(=O)N2Cc1ccoc1 [Example I-64, 4-(furan-3-ylmethyl)-N-(1H-indol-3-yl)-3-oxo-3,4-dihydro-2H-benzo[b][1,4]thiazin-7-carboxamide]
[1]
  IC50: 139 nM

## O=C(Nc1c[nH]c2ccccc12)c1ccc2c(c1)N(Cc1ccco1)C(=O)CS2 [Example I-60, 4-(furan-2-ylmethyl)-N-(1H-indol-3-yl)-3-oxo-3,4-dihydro-2H-benzo[b][1,4]thiazin-6-carboxamide]
[1]
  IC50: 42 nM

## CC1(C)C(=O)N(Cc2ccccc2)c2cc(NC(=O)c3c[nH]c4ccccc34)ccc21 [C, reference compound]
[1]
  IC50: 1540 nM
[2]
  IC50: 188 nM

## CC1(C)C(=O)N(CC2CN(c3ccccc3)C2)c2cc(NC(=O)Nc3c[nH]c4ccccc34)ccc21 [Example I-12, 1-(3,3-dimethyl-2-oxo-1-((1-phenylazetidin-3-yl)methyl)indolin-6-yl)-3-(1H-indol-3-yl)urea]
[1]
  IC50: 375 nM

## O=C(Nc1c[nH]c2ccccc12)c1ccc2c(c1)N(CC1CC1)C(=O)CS2 [Example I-62, 4-(cyclopropylmethyl)-N-(1H-indol-3-yl)-3-oxo-3,4-dihydro-2H-benzo[b][1,4]thiazin-6-carboxamide]
[1]
  IC50: 121 nM
[2]
  IC50: 38 nM

## O=C(Nc1c[nH]c2ccccc12)c1ccc2c(c1)N(Cc1cccs1)C(=O)CS2 [Example I-59, N-(1H-indol-3-yl)-3-oxo-4-(thien-2-ylmethyl)-3,4-dihydro-2H-benzo[b][1,4]thiazin-6-carboxamide]
[1]
  IC50: 25 nM

## O=C(Nc1ccc2c(c1)N(CC1CN(c3ccc4c(c3)OCO4)C1)C(=O)CS2)Nc1c[nH]c2ccccc12 [Example I-13, 1-(4-((1-(benzo[d][1,3]dioxolan-5-yl)azetidin-3-yl)methyl)-3-oxo-3,4-dihydro-2H-benzo[b][1,4]thiazin-6-yl)-3-(1H-indol-3-yl)urea]
[1]
  IC50: 391 nM

## COc1cccc(N2CC(CN3C(=O)C(C)(C)c4ccc(C(=O)Nc5c[nH]c6ccccc56)cc43)C2)c1 [Example I-15, N-(1H-indol-3-yl)-1-((1-3-methoxyphenylazetidin-3-yl)methyl)-3,3-dimethyl-2-oxoindolin-6-carboxamide]
[1]
  IC50: 132 nM
[2]
  IC50: 61 nM

## CC1(C)C(=O)N(CCc2ccccc2)c2cc(C(=O)Nc3c[nH]c4ccccc34)ccc21 [Example I-81, N-(1H-indol-3-yl)-3,3-dimethyl-2-oxo-1-phenethylindolin-6-carboxamide]
[1]
  IC50: 237 nM
[2]
  IC50: 0.42 nM

## O=C(Nc1c[nH]c2ccccc12)c1ccc2c(c1)SCC(=O)N2Cc1ccc2c(c1)OCO2 [Example I-66, 4-(benzo[d][1,3]dioxolan-5-ylmethyl)-N-(1H-indol-3-yl)-3-oxo-3,4-dihydro-2H-benzo[b][1,4]thiazin-7-carboxamide]
[1]
  IC50: 73 nM

## CC1(C)C(=O)N(CC2CN(c3cc(F)cc(C(F)(F)F)c3)C2)c2cc(C(=O)Nc3c[nH]c4ccccc34)ccc21 [Example I-17]
[1]
  IC50: 32 nM
[2]
  IC50: 6.8 nM

## CC1(C)C(=O)N(CC2CN(c3ccsc3)C2)c2cc(C(=O)Nc3c[nH]c4ccccc34)ccc21 [Example I-20, N-(1H-indol-3-yl)-3,3-dimethyl-2-oxo-1-((1-(thien-3-yl)azetidin-3-yl)methyl)indolin-6-carboxamide]
[1]
  IC50: 296 nM
[2]
  IC50: 16 nM

## O=C(Nc1c[nH]c2ccccc12)c1ccc2c(c1)N(Cc1ccsc1)C(=O)CS2 [Example I-55, N-(1H-indol-3-yl)-3-oxo-4-(thien-3-ylmethyl)-3,4-dihydro-2H-benzothien[b][1,4]thiazin-6-carboxamide]
[1]
  IC50: 56 nM
[2]
  IC50: 80 nM

## CC1(C)C(=O)N(Cc2ccco2)c2cc(C(=O)Nc3c[nH]c4ccccc34)ccc21 [Example I-80, 1-(furan-2-ylmethyl)-N-(1H-indol-3-yl)-3,3-dimethyl-2-oxoindolin-6-carboxamide]
[1]
  IC50: 626 nM
[2]
  IC50: 24 nM

## O=C(Nc1ccc2c(c1)N(Cc1ccccc1)C(=O)CS2)Nc1c[nH]c2ccccc12 [A, reference compound]
[1]
  IC50: 2300 nM
[2]
  IC50: 161 nM

## O=C(Nc1c[nH]c2ccccc12)c1ccc2c(c1)N(CC1CN(c3cc(F)cc(C(F)(F)F)c3)C1)C(=O)CS2 [Example I-9, 4-((1-(3-fluoro-5-trifluoromethylphenyl)azetidin-3-yl)methyl)-N-(1H-indol-3-yl)-3-oxo-3,4-dihydro-2H-benzo[b][1,4]thiazin-6-carboxamide]
[1]
  IC50: 249 nM

## O=C(Nc1c[nH]c2ccccc12)c1ccc2c(c1)SCC(=O)N2Cc1ccc2occc2c1 [Example I-65, 4-(benzofuran-5-ylmethyl)-N-(1H-indol-3-yl)-3-oxo-3,4-dihydro-2H-benzo[b][1,4]thiazin-7-carboxamide]
[1]
  IC50: 57 nM

## CC1(C)C(=O)N(CC2CC2)c2cc(C(=O)Nc3c[nH]c4ccccc34)ccc21 [Example I-78, 1-cyclopropylmethyl-N-(1H-indol-3-yl)-3,3-dimethyl-2-oxoindolin-6-carboxamide]
[1]
  IC50: 334 nM
[2]
  IC50: 7.4 nM

## CC1(C)C(=O)N(CC2CN(c3cc(Cl)cc(C(F)(F)F)c3)C2)c2cc(C(=O)Nc3c[nH]c4ccccc34)ccc21 [Example I-18]
[1]
  IC50: 56 nM
[2]
  IC50: 19 nM

## O=C(Nc1c[nH]c2ccccc12)c1cc2c(s1)SCC(=O)N2Cc1ccccc1 [Example I-6, 1-benzyl-N-(1H-indol-3-yl)-2-oxo-2,3-dihydro-1H-thieno[2,3-b][1,4]thiazin-6-carboxamide]
[1]
  IC50: 392 nM
[2]
  IC50: 33 nM

## O=C(Nc1cc2c(s1)SCC(=O)N2Cc1ccccc1)Nc1c[nH]c2ccccc12 [Example I-7, 1-(1-benzyl-2-oxo-2,3-dihydro-1H-thieno[2,3-b][1,4]thiazin-6-yl)-3-(1H-indol-3-yl)urea]
[1]
  IC50: 390 nM

## CC1(C)C(=O)N(CC2CN(c3ccccc3)C2)c2cc(C(=O)Nc3c[nH]c4ccccc34)ccc21 [Example I-11, N-(1H-indol-3-yl)-3,3-dimethyl-2-oxo-1-((1-phenylazetidin-3-yl)methyl)indolin-6-carboxamide]
[1]
  IC50: 180 nM
[2]
  IC50: 23 nM

## CC1(C)C(=O)N(Cc2ccsc2)c2cc(NC(=O)c3c[nH]c4ccccc34)ccc21 [B, reference compound]
[1]
  IC50: > 10000 nM
[2]
  IC50: > 1000 nM

## CC1(C)C(=O)N(Cc2ccccc2)c2cc(C(=O)Nc3c[nH]c4ccccc34)ccc21 [Example I-76, 1-benzyl-N-(1H-indol-3-yl)-3,3-dimethyl-2-oxoindolin-6-carboxamide]
[1]
  IC50: 235 nM
[2]
  IC50: 2.24 nM

## O=C(Nc1c[nH]c2ccccc12)c1cc2c(s1)SCC(=O)N2Cc1cccc2ccoc12 [Example I-120, 1-(benzofuran-7-ylmethyl)-N-(1H-indol-3-yl)-2-oxo-2,3-dihydro-1H-thieno[2,3-b][1,4]thiazin-6-carboxamide]
[2]
  IC50: 8.7 nM
[3]
  IC50: 96.5 nM
